Values of other authors in patent publication US20100285127A1, “TASTE MASKED PHARMACEUTICAL COMPOSITIONS OF S-ALKYLISOTHIOURONIUM DERIVATIVES” (priority 2007, published 2010).

Conditions: Zherebchenko 1968; Goloschapova 1981

Substance: S-ethylisothiouronium diethylphosphate [Difetur]
- radioprotective effects: radioprotective effects
